From PubChem BioAssay (NCI)
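Interpolation was linear, between the two tested concentrations surrounding the appropriate level; five concentrations were tested over 48 hours in 96-well plates. The concentration for 50% growth inhibition is given as GI50. TGI is the concentration that stops growth completely.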

Legend:
Test in all cases: growth of human tumour cells (NCI), 48 h
[1] = system: M14 melanoma
[2] = system: A498 renal
[3] = system: RPMI-8226 leukemia
[4] = system: DU-145 prostate
[5] = system: MALME-3M melanoma
[6] = system: SK-MEL-5 melanoma
[7] = system: NCI-H522 lung
[8] = system: OVCAR-8 ovarian
[9] = system: TK-10 renal
[10] = system: SK-OV-3 ovarian
[11] = system: MDA-MB-435
[12] = system: SK-MEL-2 melanoma
[13] = system: CCRF-CEM leukemia
[14] = system: SNB-19 CNS
[15] = system: BT-549 breast
[16] = system: SN12C renal
[17] = system: LOX IMVI melanoma
[18] = system: NCI-H460 lung
[19] = system: HT29 colon
[20] = system: SF-295 CNS
[21] = system: MOLT-4 leukemia
[22] = system: OVCAR-5 ovarian
[23] = system: KM12 colon
[24] = system: HCC-2998 colon
[25] = system: SF-268 CNS
[26] = system: SW-620 colon
[27] = system: A549 NSCLC
[28] = system: HCT-15 colon
[29] = system: PC-3 prostate
[30] = system: ACHN renal
[31] = system: U251 CNS
[32] = system: 786-0 renal
[33] = system: SK-MEL-28 melanoma
[34] = system: OVCAR-3 ovarian
[35] = system: CAKI-1 renal
[36] = system: NCI-H226 lung
[37] = system: RXF 393 renal
[38] = system: COLO 205 colon
[39] = system: EKVX NSCLC
[40] = system: HS 578T breast
[41] = system: HOP-92 NSCLC
[42] = system: HCT-116 colon
[43] = system: NCI-H23 lung
[44] = system: K-562 leukemia
[45] = system: MDA-MB-468 breast
[46] = system: HL-60(TB) leukemia
[47] = system: UO-31 renal
[48] = system: UACC-257 melanoma
[49] = system: MDA-MB-231 breast
[50] = system: T-47D breast
[51] = system: SR leukemia
[52] = system: IGROV1 ovarian
[53] = system: SNB-75 CNS
[54] = system: UACC-62 melanoma
[55] = system: HOP-62 NSCLC
[56] = system: SF-539 CNS
[57] = system: OVCAR-4 ovarian
[58] = system: MCF7 breast
[59] = system: NCI/ADR-RES ovarian

Compound: O=C(c1ccc(Cl)cc1)C1[C@H](c2ccccc2Br)[C@@H](c2ccccc2)NC12C(=O)Nc1ccc(Br)cc12 (some centres not stated)
- GI50 [1]: 7.81 µM
- TGI [1]: 34.9 µM
- GI50 [2]: > 49 µM
- TGI [2]: > 49 µM
- GI50 [3]: 8.15 µM
- TGI [3]: > 49 µM
- GI50 [4]: 9.36 µM
- TGI [4]: > 49 µM
- GI50 [5]: 13.1 µM
- TGI [5]: > 49 µM
- GI50 [6]: 10.6 µM
- TGI [6]: 38 µM
- GI50 [7]: 2.44 µM
- TGI [7]: 26.2 µM
- GI50 [8]: 11 µM
- TGI [8]: > 49 µM
- GI50 [9]: 20.4 µM
- TGI [9]: > 49 µM
- GI50 [10]: 13.6 µM
- TGI [10]: > 49 µM
- GI50 [11]: 7.74 µM
- TGI [11]: 22.3 µM
- GI50 [12]: 7.37 µM
- TGI [12]: > 49 µM
- GI50 [13]: 5.97 µM
- TGI [13]: 26.5 µM
- GI50 [14]: 23.2 µM
- TGI [14]: > 49 µM
- GI50 [15]: 5.97 µM
- TGI [15]: > 49 µM
- GI50 [16]: 5.33 µM
- TGI [16]: 14 µM
- GI50 [17]: 4.95 µM
- TGI [17]: 13.5 µM
- GI50 [18]: 5.94 µM
- TGI [18]: 15 µM
- GI50 [19]: 6.21 µM
- TGI [19]: 17.2 µM
- GI50 [20]: 12.2 µM
- TGI [20]: > 49 µM
- GI50 [21]: 2.4 µM
- TGI [21]: 25.2 µM
- GI50 [22]: 10.2 µM
- TGI [22]: > 49 µM
- GI50 [23]: 7.46 µM
- TGI [23]: 23.4 µM
- GI50 [24]: 8.14 µM
- TGI [24]: 33.8 µM
- GI50 [25]: 3.97 µM
- TGI [25]: > 49 µM
- GI50 [26]: 9.5 µM
- TGI [26]: > 49 µM
- GI50 [27]: 4.84 µM
- TGI [27]: > 49 µM
- GI50 [28]: 7.65 µM
- TGI [28]: > 49 µM
- GI50 [29]: 2.53 µM
- TGI [29]: 33.4 µM
- GI50 [30]: 10 µM
- TGI [30]: > 49 µM
- GI50 [31]: 8.25 µM
- TGI [31]: 31.6 µM
- GI50 [32]: 18.4 µM
- TGI [32]: > 49 µM
- GI50 [33]: 20.3 µM
- TGI [33]: > 49 µM
- GI50 [34]: 5.07 µM
- TGI [34]: 29.5 µM
- GI50 [35]: 1.88 µM
- TGI [35]: > 49 µM
- GI50 [36]: 5.52 µM
- TGI [36]: > 49 µM
- GI50 [37]: 2.2 µM
- TGI [37]: 23.3 µM
- GI50 [38]: 7.1 µM
- TGI [38]: 15.5 µM
- GI50 [39]: 13.3 µM
- TGI [39]: > 49 µM
- GI50 [40]: 7.13 µM
- TGI [40]: > 49 µM
- GI50 [41]: 3.28 µM
- TGI [41]: > 49 µM
- GI50 [42]: 2.34 µM
- TGI [42]: 11.7 µM
- GI50 [43]: 7.91 µM
- TGI [43]: > 49 µM
- GI50 [44]: 6.65 µM
- TGI [44]: > 49 µM
- GI50 [45]: 1.55 µM
- TGI [45]: 14.2 µM
- GI50 [46]: 8.67 µM
- TGI [46]: 32.5 µM
- GI50 [47]: 4.83 µM
- TGI [47]: > 49 µM
- GI50 [48]: 10 µM
- TGI [48]: > 49 µM
- GI50 [49]: 5.01 µM
- TGI [49]: 23 µM
- GI50 [50]: 3.88 µM
- TGI [50]: > 49 µM
- GI50 [51]: 3.01 µM
- TGI [51]: 18.7 µM
- GI50 [52]: 6.71 µM
- TGI [52]: > 49 µM
- GI50 [53]: 1.31 µM
- TGI [53]: > 49 µM
- GI50 [54]: 6.59 µM
- TGI [54]: > 49 µM
- GI50 [55]: 15.6 µM
- TGI [55]: > 49 µM
- GI50 [56]: > 49 µM
- TGI [56]: > 49 µM
- GI50 [57]: 10.1 µM
- TGI [57]: > 49 µM
- GI50 [58]: 2.64 µM
- TGI [58]: > 49 µM

Compound: OCCNc1oc(-c2ccccc2)nc1[P+](c1ccccc1)(c1ccccc1)c1ccccc1
- GI50 [1]: 4.4 µM
- TGI [1]: 20.2 µM
- GI50 [2]: 15.4 µM
- TGI [2]: 48.2 µM
- GI50 [3]: 0.956 µM
- TGI [3]: 11.7 µM
- GI50 [4]: 6.1 µM
- TGI [4]: 21.3 µM
- GI50 [5]: 1.95 µM
- TGI [5]: 6.52 µM
- GI50 [6]: 1.52 µM
- TGI [6]: 2.92 µM
- GI50 [7]: 2.15 µM
- TGI [7]: 9.32 µM
- GI50 [8]: 3.79 µM
- TGI [8]: 15.2 µM
- GI50 [9]: 6 µM
- TGI [9]: 23.1 µM
- GI50 [10]: 3.58 µM
- TGI [10]: 16.6 µM
- GI50 [11]: 2.99 µM
- TGI [11]: 11.3 µM
- GI50 [12]: 2.58 µM
- TGI [12]: 7.18 µM
- GI50 [13]: 3.07 µM
- TGI [13]: 19.9 µM
- GI50 [14]: 2.82 µM
- TGI [14]: 10.9 µM
- GI50 [15]: 2.51 µM
- TGI [15]: 7.88 µM
- GI50 [16]: 2.82 µM
- TGI [16]: 8.53 µM
- GI50 [17]: 3.93 µM
- TGI [17]: 14.6 µM
- GI50 [18]: 3.29 µM
- TGI [18]: 13.6 µM
- GI50 [19]: 3.04 µM
- TGI [19]: 17.5 µM
- GI50 [20]: 10.5 µM
- TGI [20]: 24.2 µM
- GI50 [21]: 4.43 µM
- TGI [21]: 35.1 µM
- GI50 [22]: 5.06 µM
- TGI [22]: 34.2 µM
- GI50 [23]: 3.21 µM
- TGI [23]: 11.2 µM
- GI50 [24]: 3.3 µM
- TGI [24]: 11.7 µM
- GI50 [25]: 3.4 µM
- TGI [25]: 16.6 µM
- GI50 [26]: 4.74 µM
- TGI [26]: 35.5 µM
- GI50 [27]: 18.5 µM
- TGI [27]: > 100 µM
- GI50 [28]: 29.8 µM
- TGI [28]: > 100 µM
- GI50 [29]: 2.22 µM
- TGI [29]: 11.1 µM
- GI50 [30]: 18.8 µM
- TGI [30]: 85.1 µM
- GI50 [31]: 3.28 µM
- TGI [31]: 15.4 µM
- GI50 [32]: 13.2 µM
- TGI [32]: 29.8 µM
- GI50 [33]: 2.59 µM
- TGI [33]: 11.4 µM
- GI50 [34]: 2.35 µM
- TGI [34]: 11 µM
- GI50 [35]: 11.5 µM
- TGI [35]: 43.1 µM
- GI50 [36]: 4.05 µM
- TGI [36]: 24.5 µM
- GI50 [37]: 1.86 µM
- TGI [37]: 9.35 µM
- GI50 [38]: 2.14 µM
- TGI [38]: 7.86 µM
- GI50 [39]: 5.1 µM
- TGI [39]: 28.3 µM
- GI50 [40]: 3.21 µM
- TGI [40]: 13.3 µM
- GI50 [41]: 1.35 µM
- TGI [41]: 6.73 µM
- GI50 [42]: 4.8 µM
- TGI [42]: 35.1 µM
- GI50 [43]: 4.3 µM
- TGI [43]: 23.8 µM
- GI50 [59]: > 100 µM
- TGI [59]: > 100 µM
- GI50 [44]: 2.5 µM
- TGI [44]: 20.7 µM
- GI50 [45]: 1.08 µM
- TGI [45]: 4.35 µM
- GI50 [46]: 1.57 µM
- TGI [46]: 5.33 µM
- GI50 [47]: 20.4 µM
- TGI [47]: 71 µM
- GI50 [48]: 2.65 µM
- TGI [48]: 8.47 µM
- GI50 [49]: 1.87 µM
- TGI [49]: 5.2 µM
- GI50 [51]: 5.12 µM
- TGI [51]: 22.8 µM
- GI50 [52]: 2.57 µM
- TGI [52]: 8.53 µM
- GI50 [53]: 1.85 µM
- TGI [53]: 7.92 µM
- GI50 [54]: 1.63 µM
- TGI [54]: 4.28 µM
- GI50 [55]: 10 µM
- TGI [55]: 34.4 µM
- GI50 [56]: 5.63 µM
- TGI [56]: 19.5 µM
- GI50 [57]: 3.68 µM
- TGI [57]: 59.4 µM
- GI50 [58]: 2.69 µM
- TGI [58]: 12.5 µM
